Assay: Reversible water uptake and release of pymetrozine at defined relative humidity
Assay type: physicochemical
Details: room temperature
Source text: The above-mentioned water content of 16 to 17% by weight corresponds very well to a dihydrate. Even pesticidal formulations that contain water-free and solvent-free pymetrozine take up usually water or the corresponding solvent from the atmosphere when left to stand under sufficiently high vapour pressure.

CC1=NNC(=O)N(/N=C/c2cccnc2)C1 [pymetrozine]
water taken up (relative humidity between 60% and 70%): 16 to 17 % by weight
water release (relative humidity of less than ca. 10%, water-containing pymetrozine): gives up the water completely

From US6784176B2, “Solvates of pymetrozine” (priority 1999, dated 2004)
